Assay results as given in patent publication US12344612B2, “Bicyclic ketone compounds and methods of use thereof” (Genentech, Inc., priority 2019, dated 2025).

What follows are compounds tested against human RIP1 kinase domain (2-375) (Homo sapiens (Human), UniProt Q13546) (assay: RIP1 kinase inhibition biochemical assay (Transcreener ADP, fluorescence polarization)). Conditions: apparent Ki (Morrison tight-binding fit); 50 nM enzyme, 50 μM ATP, 2 hours incubation.
Method: RIP1 Kinase Inhibition Assays (Biochemical Assay)
The compounds of the present invention were tested for their capacity to inhibit RIP1K activity as described below.
The ability of the receptor interacting protein kinase (RIPK1) to catalyze the hydrolysis of adenosine-5′-triphosphate (ATP) is monitored using the Transcreener ADP (adenosine-5′-diphosphate) assay (BellBrook Labs). Purified human RIP1 kinase domain (2-375) (50 nM) derived from a baculovirus-infected insect cell expression system is incubated with test compounds for 2 hours in 50 mM Hepes buffer (pH 7.5) containing 30 mM MgCl2, 1 mM dithiothreitol, 50 μM ATP, 0.002% Brij-35, and 0.5% dimethyl sulfoxide (DMSO). Reactions are quenched by the addition of 1× Bell Brooks Stop buffer B (20 mM Hepes (ph7.5), 40 mM ethylenediaminetetraacetic acid and 0.02% Brij-35) containing an additional 12 mM EDTA and 55 ug/mL ADP2 antibody and 4 nM ADP-AlexaFluor® 633 tracer. The tracer bound to the antibody is displaced by the ADP generated during the RIP1K reaction, which causes a decrease in fluorescence polarization that is measured by laser excitation at 633 nm with a FP microplate reader M1000. Fractional activity was plotted against test article concentration. Using Genedata Screener software (Genedata; Basel, Switzerland), the data were fit to the tight-binding apparent inhibition constant (Ki^app) Morrison equation [Williams, J. W. and Morrison, J. F. (1979) The kinetics of reversible tight-binding inhibition. Methods Enzymol 63: 437-67]. The following equation was used to calculate fractional activity and Ki^app:
[formula] where [E]T and [I]T are the total concentrations of active enzyme and test article, respectively.
Exemplary compounds of the present invention are provided in Table 1 along with their physiochemical characterization and in vitro RIP1 kinase inhibitory activity data. “Method” in the first column of each table refers to the synthetic method(s) used to prepare each compound as shown in the Examples above.

Sequence of human RIP1 kinase domain (2-375) (Q13546 2-375): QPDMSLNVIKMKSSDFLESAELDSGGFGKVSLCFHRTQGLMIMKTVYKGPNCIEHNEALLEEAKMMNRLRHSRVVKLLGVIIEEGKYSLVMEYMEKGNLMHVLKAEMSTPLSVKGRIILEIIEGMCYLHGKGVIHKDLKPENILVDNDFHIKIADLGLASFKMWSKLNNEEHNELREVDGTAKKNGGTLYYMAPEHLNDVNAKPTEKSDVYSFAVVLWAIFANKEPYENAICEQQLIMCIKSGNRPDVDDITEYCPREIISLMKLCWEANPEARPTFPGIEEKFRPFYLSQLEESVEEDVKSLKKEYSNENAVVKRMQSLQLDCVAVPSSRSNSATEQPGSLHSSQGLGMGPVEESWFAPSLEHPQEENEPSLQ

SMILES | Ki [nM]
O=C(c1nc2n(n1)[C@@H](c1cncc(F)c1)C[C@H]2F)C1CC1 (single isomer, unassigned) [Example 2] | > 10000
O=C(c1nc2n(n1)[C@H](c1cccc(Cl)c1)C[C@@H]2F)C1CC1 (single isomer, unassigned) [Example 9] | 6.5
CC1(C)OCC2CC21C(=O)c1nc2n(n1)[C@H](c1ccccc1)C[C@@H]2F (mixture of isomers) [Example 3, (2,2-dimethyl-3-oxabicyclo[3.1.0]hexan-1-yl)-[rac-(5S,7S)-7-fluoro-5-phenyl-6,7-dihydro-5H-pyrrolo[1,2-b][1,2,4]triazol-2-yl]methanone] | 84
N#Cc1cccc([C@@H]2C[C@H](F)c3nc(C(=O)C4CC4)nn32)c1 (single isomer, unassigned) [Example 8] | 28
CC(=O)N1CC(C(=O)c2nc3n(n2)[C@H](c2ccccc2)C[C@@H]3F)C1 (single isomer, unassigned) [Example 7] | 130
CCC(=O)c1nc2n(n1)[C@H](c1cnn(C)c1)C[C@@H]2F (single isomer, unassigned) [Example 6] | 25
CC(C)(CO)C(=O)c1nc2n(n1)[C@H](c1ccccc1)C[C@@H]2F [Example 4, 3-hydroxy-2,2-dimethyl-1-((5S,7S)-7-fluoro-5-phenyl-6,7-dihydro-5H-pyrrolo[1,2-b][1,2,4]triazol-2-yl)propan-1-one] | 31
CC(C)(COC(F)F)C(=O)c1nc2n(n1)[C@H](c1ccccc1)C[C@@H]2F [Example 5, 3-(difluoromethoxy)-2,2-dimethyl-1-((5S,7S)-7-fluoro-5-phenyl-6,7-dihydro-5H-pyrrolo[1,2-b][1,2,4]triazol-2-yl)propan-1-one] | < 5
O=C(c1nc2n(n1)[C@H](c1cncc(F)c1)C[C@@H]2F)C1CC1 (single isomer, unassigned) [Example 1] | 9
